Assay [1] addresses T1, FKBP12 (Homo sapiens, UniProt P62942). The assay can be described thus: AlphaLISA inhibition of binding of biotinylated FK506 to FLAG tagged FKBP12. Details: made in house. Particulars: read-out: Binding affinity to FKBP12 (by displacement of FK506). The source says:
The binding of compounds of the invention to FKBP12 can be determined using the following protocol.
This protocol utilizes Perkin Elmers AlphaLISA technology platform to detect FKBP binders by measuring the inhibition of binding of biotinylated FK506 to FLAG tagged FKBP12.
10×TBST Buffer (Boston BioProducts IBB-181), Biotinylated FK506 (in-house), FLAG tagged FKBP (in-house); anti-FLAG Donor beads (PerkinElmer AS103) and Streptavidin Acceptor beads (PerkinElmer AL125); Compounds in DMSO (in-house), FK506.
Add 20 uL of 12.5 nM FKBP-FLAG working stock to each well of the 96-well plate. Add 1 uL of test compound (100% DMSO) to each well of the plate using the Janus MTD head and P20 tips (except control wells). Add 1 uL of DMSO to negative control wells and 1 uL of 50 uM FK506 solution to positive control wells. In the dark, add 20 uL of combined Donor/Acceptor beads to each well. Incubate in the dark for 30 minutes at room temperature. In the dark, add 10 uL of 5 nM biotinylated FK506 working stock to each well. Incubate in the dark for 60 minutes at room temperature. Protect plate from light until reading on Biotek Synergy2 Plate Reader; Alphalisa 96-well protocol (680 excitation/615 emission).

The target in assay [2] is T1, FKBP12. The assay can be described thus: SPR binding of compound (analyte) to immobilized FKBP12.
Procedure: This protocol utilizes Surface Plasmon Resonance (SPR) as a method to determine kinetics (KD, Ka, Kd) for the binding of compound (analyte) to immobilized FKBP12 (ligand).
Compound in 100% DMSO (in-house), 10×HBS-P+ buffer (GE Healthcare BR-1006-71), Assay buffer (1×HBS-P+ buffer, 1% DMSO), 12×HIS tagged FKBP12 (in-house).
Experiments are performed at 25° C. Stock solution of 12×HIS tagged FKBP12 is diluted to 100 nM in assay buffer (1% DMSO final). Approximately 500-600 RU of FKBP12 is immobilized on one of two flow cells of an activated NTA chip. The second flow cell is not activated as a reference for non-specific interaction of the analyte to the sensor chip. Various concentrations of compound (1 nM-1 μM range), serially diluted into the same assay buffer (1% DMSO final), are injected onto the FKBP12 surface and reference surface at a flow rate of 10 μl/min. The surface is regenerated between analyte injections with 350 mM EDTA.
Experiments are performed at 25° C. Stock solution of 12×HIS tagged FKBP12 is diluted to 100 nM in assay buffer (1% DMSO final). Approximately 500-600 RU of FKBP12 is immobilized on one of two flow cells of an activated NTA chip. The second flow cell is not activated as a reference for non-specific interaction of the analyte to the sensor chip.
The subject of the next assay is HeLa-FKBP12 cells. The assay can be described thus: Biosensor cell permeability assay (FKBP destabilizing mutant), HeLa-FKBP12 cells. The format is cell-based. The following applies: 72 hrs. The protocol: Cell permeability of compounds can be determined using the following protocol.
This protocol utilizes a modified FKBP or cyclophilin destabilizing mutant to determine the bioactivity of FKBP binding compounds or cyclophilin binding compounds in whole cell assay.
DMEM, DMEM without Phenol Red, 10% FBS, 1× Sodium Pyruvate, 1× Glutamax. Add 125 μl of media with compound per well.
Plate HeLa-FKBP12 cells (for FKBP binding compounds) or HeLa-CyclophilinA cells (for cyclophilin binding compounds) and seed overnight at 5 k/well (approximately ˜18 hrs.). Using a multi-channel pipet, take out the old media and add ˜125 ul of new media with compounds. Compounds are diluted using DMEM without Phenol Red, 10% FBS, 1× Sodium Pyruvate, 1× Glutamax. Add 125 μL of media with compound per well. Cells are treated with compounds at concentration: 30, 10, 3.33, 1.11, 0.37, 0.12, 0.04 and 0.013 uM. Time points are taken at 72 hrs and plate read using plate reader with excitation/emission: 575/620.
Cell binding/permeability is calculated in fold-change (Total RFU of treated samples/total RFU of DMSO treated samples or total RFU above background (Total RFU minus total RFU of DMSO treated samples).

Assay [3] addresses T2, CEP250 (Homo sapiens, UniProt Q9BV73).
T2 construct: CEP25011.4 (residues 2134-2231) (in-house); made in house
The assay can be described thus: SPR binding of CEP250 (analyte) to immobilized FKBP12-F2 binary complex. Particulars: 1 μM F2. The protocol:
This protocol utilizes Surface Plasmon Resonance (SPR) as a method to determine kinetics (KD, Ka, Kd) for the binding of CEP250 (analyte) to immobilized FKBP12-F2 binary complex (ligand).
Experiments are performed at 25° C. […] Approximately 200-400 RU of FKBP12 is immobilized on one of two flow cells of an activated NTA chip. The second flow cell is not activated as a reference for non-specific interaction of the analyte to the sensor chip. […] The surface is regenerated between analyte injections with 350 mM EDTA.
The BiaEvaluation software program is used for data fitting. All data is reference subtracted against both the reference flow cell and a buffer injection. For kinetic analyses, data is locally fit to a 1:1 interaction model.
A general note: Surface plasmon resonance follows binding to a sensor surface in real time, without labels.

Assay [4] concerns the target T3, CEP250 (Homo sapiens, UniProt P62942+Q9BV73).
T3 construct: CEP25011.4 (residues 2134-2231) (in-house); made in house
The assay can be described thus: Crystal structure analysis of FKBP12-compound-CEP250 ternary complexes. The protocol:
This protocol describes the crystallization and structure determination method for structures of FKBP12-Compound 2-CEP250 and FKBP12-F11-CEP250 ternary complexes.
A 3:1 molar excess of FKBP12-F2 or FKBP12-F11 binary complex is added to CEP25011.4 and incubated at 4° C. overnight to complete ternary complex formation. Pure ternary complex is isolated by gel filtration purification on a Superdex 200 column in 12.5 mM HEPES pH 7.4, 75 mM NaCl. Purified complex (at 10-20 mg/ml) is subjected to crystallization at 22° C. using sitting drop vapor diffusion. FKBP12-F2-CEP250 crystals grow in a well solution containing 0.2 M sodium malonate, 0.1 M HEPES 7.0, 21% PEG 3350. FKBP12-F11-CEP250 crystals grow in a well solution containing 0.1 M Tris pH 8.5, 0.2 M trimethylamine N-oxide, 22-24% PEG2000 MME. For data collection crystals are transferred to a solution containing mother liquor supplemented with 20-25% glycerol, and then frozen in liquid nitrogen. Diffraction datasets are collected at the Advanced Photon Source (APS) and processed with the HKL program. Molecular replacement solutions are obtained using the program PHASER in the CCP4 suite, using the published structure of FKBP12 (PDB-ID 1FKD) as a search model. Subsequent model building and refinement are performed according to standard protocols with the software packages CCP4 and COOT.

Assay [5] has as its target T2, CEP250. The assay can be described thus: ITC binding of FKBP12-compound binary complexes to CEP250. Particulars: FKBP12 10 μM + ligand 20 μM in cell, 298 K; for pKd: calculated from Ka = 1/Kd.
Where [6] appears, read: read-out: SPR affinity to FKBP12: KD, 25° C., Table 7.
[7] abbreviates: FKBP12-compound-CEP250 crystal structure.

SMILES strings stand for the structures. pIC50, pKd: −log10 of the molar value. Several values for one entry are separate records, joined by “and”; a condition that tells them apart may be missing. Equal values may be shown once. Read-outs that look alike come from different tables or passages of the source.

What is called pKd is the Kd on a negative log10 scale, so that one unit is a factor of ten.

T1 sequence (P62942 whole entry, species assumed): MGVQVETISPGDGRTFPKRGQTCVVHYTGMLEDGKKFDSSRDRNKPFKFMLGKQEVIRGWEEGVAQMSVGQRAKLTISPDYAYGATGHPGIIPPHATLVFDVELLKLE
T3 sequence (Q9BV73 2134-2231): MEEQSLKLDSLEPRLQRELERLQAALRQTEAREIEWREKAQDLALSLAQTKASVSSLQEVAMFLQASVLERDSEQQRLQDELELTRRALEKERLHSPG
T3 sequence (P62942 whole entry, the tested form may be a part): as the sequence (P62942 whole entry, species assumed) above

Turning to `CCC(Cc1ccccc1)C1C=CCC=CCC(C)C(O)C(C)C2CCC(C)C(O)(CC(=O)N3CCCCC3C(=O)O1)O2` (stereo not shown) [Compound F1], the pIC50 on FKBP12 [1] is 6.45. Besides, on FKBP12 [2] (setting [6]), the negative logarithm of the Kd (pKd) is 7.15.
`CC[C@H](Cc1ccccc1)[C@@H]1/C=C/C/C=C/C[C@@H](C)[C@H](O)[C@@H](C)[C@@H]2CC[C@@H](C)C(=O)C(O)(O2)C(=O)N2CCCC[C@H]2C(=O)O1` [Compound F2, (2S)-1-((4R,7S)-7-((2R,3S,4R,6E,9E,11R,12R)-12-benzyl-3,11-dihydroxy-4-methyltetradeca-6,9-dien-2-yl)-2-hydroxy-4-methyl-3-oxooxepane-2-carbonyl)piperidine-2-carboxylic acid C-11 lactone]: in the assay on HeLa-FKBP12 cells, the pIC50 is greater than 6.00. This molecule came in with a Ka at CEP250 [3] (FKBP12/F2 complex to CEP25011.4 (residues 2134-2231)) of 571000 M⁻¹ s⁻¹. On CEP250 [3] (FKBP12/F2 complex to CEP25029.2 (residues 1982-2231)), this molecule registered a Ka of 311000 M⁻¹ s⁻¹. In addition, on CEP250 [4] (setting [7]), the “buried surface area of CEP250 contributed by FKBP12” value is reported as 663 Å^2; the “buried surface area of CEP250 contributed by the compound” value is 232 Å^2 and 241 Å^2; the “total buried surface area of CEP250” value is given as 865 Å^2; the “total buried surface area of the ternary complex” value is given as 1759 Å^2. In addition, at CEP250 [4] (ternary complex), the “binding interactions between compound and CEP250 that are van der Waals or pi-pi interactions” value is on record as 100%. Moreover, at CEP250 [5] (CEP25011.4 68 μM in syringe), the ΔG is −40.75 kJ*mol −mol−1, the ΔH is −49.37 kJ*mol −mol−1, the “−T*ΔS” value is on record as 8.62 kJ*mol −mol−1 and the pKd is 7.15. At CEP250 [5] (CEP25029.4 118 μM in syringe), the ΔG is on record as −38.41 kJ*mol −mol−1, the ΔH is listed as −52.21 kJ*mol −mol−1, the “−T*ΔS” value is recorded as 13.80 kJ*mol −mol−1 and the pKd is 6.72. Further, the pIC50 at FKBP12 [1] is 8.82. The Ka at FKBP12 [2] (Example 10, 25° C., 1:1 interaction model) was found to be 45000 M⁻¹ s⁻¹. Also, the pKd at FKBP12 [2] (setting [6]) was 7.90.
For the molecule `CC1=CCC(O)CC(C(C)=CC(C)=CC2C=CC(O)C(O)C2)OC(=O)C2CCCCN2C(=O)CC2(O)OC(C(C)CC=CCC(O)C=C1)C(C)CC2C` (stereo not shown) [Compound F6], the pIC50 in the assay with HeLa-FKBP12 cells was greater than 6.00; on FKBP12 [1], 7.22. Also, the pKd at FKBP12 [2] (setting [6]) is 6.85.
The corresponding values for `COC1C(O)CCC(CC(C)C2CCCC=CCC(C)=CCC3OC(O)(C(=O)C(=O)N4CCCCC4C(=O)O2)C(C)CC3C)C1O` (stereo not shown) [Compound F9] are greater than 6.00, 9.52 and 9.64.
The corresponding values for `CCC1C=C(C)C(O)CCC(C)C=CC(O)C(C)C2CCC(C)C(O)(O2)C(=O)C(=O)N2CCCCC2C(=O)OC2C=CC(=CC2O)C=C(C)C1` (stereo not shown) [Compound F10] are less than 6.00, 7.68 and 7.76.
Regarding `CC[C@H](Cc1ccccc1)[C@@H]1CCCCCC[C@@H](C)[C@H](O)[C@@H](C)[C@@H]2CC[C@@H](C)C(=O)C(O)(O2)C(=O)N2CCCC[C@H]2C(=O)O1` [Compound F11, (2S)-1-((4R,7S)-7-((2R,3S,4R,11S,12R)-12-benzyl-3,11-dihydroxy-4-methyltetradecan-2-yl)-2-hydroxy-4-methyl-3-oxooxepane-2-carbonyl)piperidine-2-carboxylic acid C-11 Lactone], at CEP250 [4] (setting [7]), the “buried surface area of CEP250 contributed by FKBP12” value is listed as 590 Å^2, the “total buried surface area of CEP250” value was found to be 831 Å^2 and the “total buried surface area of the ternary complex” value is reported as 1648 Å^2. On CEP250 [5] (CEP25011.4 68 μM in syringe), the ΔG was −40.36 kJ*mol −mol−1, the ΔH is listed as −47.78 kJ*mol −mol−1, the “−T*ΔS” value is 7.41 kJ*mol −mol−1 and the pKd was 7.10. In addition, at CEP250 [5] (CEP25029.4 118 μM in syringe), the ΔG was −36.74 kJ*mol −mol−1, the ΔH is −58.48 kJ*mol −mol−1, the “−T*ΔS” value amounted to 21.73 kJ*mol −mol−1 and the pKd was 6.44. Besides, on FKBP12 [1], the pIC50 was 9.29. On FKBP12 [2] (KD, Example 10, 25° C., 1:1 interaction model), this molecule showed a negative-log Kd (pKd) of 7.81. In addition, the pKd on FKBP12 [2] (SPR affinity to FKBP12: KD, 25° C., Table 7) is 7.67.
On to `CC1=CC2=CC(O)C(C=C2)OC(=O)C2CCCCN2C(=O)C(=O)C2(O)OC(CCC2C)C(C)C(O)C=CC(C)CCC(O)C(C)=CC(C)C1` (stereo not shown) [Compound F12], for which the figures for the pIC50 in the assay with HeLa-FKBP12 cells and on FKBP12 [1] were less than 6.00 and 7.44, respectively. Also, on FKBP12 [2] (setting [6]), the pKd is 7.67.
Consider `CC(=CC1C=CC(O)C(O)C1)C=C(C)C1CC(O)CC1C(C)(O)C=CC(O)CC=CCC(C)C1OC(O)(CC(=O)N2CCCCC2C(=O)O)C(C)CC1C` (stereo not shown) [Compound F23], for which the results for the pIC50 with HeLa-FKBP12 cells and on FKBP12 [1] were less than 6.00 and 5.33, respectively.

The record behind these values is US20200199102A1, “COMPOUNDS THAT PARTICIPATE IN COOPERATIVE BINDING AND USES THEREOF” (Revolution Medicines, Inc., priority 2017, published 2020).
